{"source": "PubChem BioAssay (NCI)", "experiment_in_all_cases": "NCI-60 cell line screen, 48 h", "key": {"NCI-H23 lung": {"system": "NCI-H23 lung"}, "HT29 colon": {"system": "HT29 colon"}, "OVCAR-3 ovarian": {"system": "OVCAR-3 ovarian"}, "U251 CNS": {"system": "U251 CNS"}, "HCC-2998 colon": {"system": "HCC-2998 colon"}, "A498 renal": {"system": "A498 renal"}, "OVCAR-8 ovarian": {"system": "OVCAR-8 ovarian"}, "K-562 leukemia": {"system": "K-562 leukemia"}, "UACC-257 melanoma": {"system": "UACC-257 melanoma"}, "ACHN renal": {"system": "ACHN renal"}}, "note": "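Interpolation was linear, between the two tested concentrations surrounding the appropriate level; five concentrations were tested over 48 hours in 96-well plates. At the GI50, growth is halved. The concentration for full growth arrest is given as TGI.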"}
{"smiles": "O=C(O)/C=C/c1cnc[nH]1", "values": [{"measurement": "TGI", "setting": "NCI-H23 lung", "value": "> 500", "unit": "µM"}, {"measurement": "TGI", "setting": "HT29 colon", "value": "> 500", "unit": "µM"}, {"measurement": "TGI", "setting": "OVCAR-3 ovarian", "value": "> 500", "unit": "µM"}, {"measurement": "TGI", "setting": "U251 CNS", "value": "> 500", "unit": "µM"}, {"measurement": "TGI", "setting": "HCC-2998 colon", "value": "> 500", "unit": "µM"}, {"measurement": "TGI", "setting": "A498 renal", "value": "> 500", "unit": "µM"}, {"measurement": "TGI", "setting": "OVCAR-8 ovarian", "value": "> 500", "unit": "µM"}, {"measurement": "TGI", "setting": "K-562 leukemia", "value": "> 500", "unit": "µM"}, {"measurement": "TGI", "setting": "UACC-257 melanoma", "value": "> 500", "unit": "µM"}]}
{"smiles": "COc1ccc2c(c1)O[C@H]1c3ccc(O)cc3OC[C@@H]21", "values": [{"measurement": "TGI", "setting": "NCI-H23 lung", "value": 86.5, "unit": "µM"}, {"measurement": "TGI", "setting": "ACHN renal", "value": 81.4, "unit": "µM"}, {"measurement": "TGI", "setting": "HT29 colon", "value": "> 100", "unit": "µM"}, {"measurement": "TGI", "setting": "OVCAR-3 ovarian", "value": "> 100", "unit": "µM"}, {"measurement": "TGI", "setting": "U251 CNS", "value": "> 100", "unit": "µM"}, {"measurement": "TGI", "setting": "HCC-2998 colon", "value": 53, "unit": "µM"}, {"measurement": "TGI", "setting": "OVCAR-8 ovarian", "value": "> 100", "unit": "µM"}, {"measurement": "TGI", "setting": "K-562 leukemia", "value": "> 100", "unit": "µM"}, {"measurement": "TGI", "setting": "UACC-257 melanoma", "value": 52.5, "unit": "µM"}]}
{"smiles": "COc1cccc(C2C(C(=O)O)=C(CO)Oc3cc4c(cc32)OCO4)c1", "note": "(centres undefined)", "values": [{"measurement": "TGI", "setting": "NCI-H23 lung", "value": "> 100", "unit": "µM"}, {"measurement": "TGI", "setting": "ACHN renal", "value": "> 100", "unit": "µM"}, {"measurement": "TGI", "setting": "HT29 colon", "value": "> 100", "unit": "µM"}, {"measurement": "TGI", "setting": "OVCAR-3 ovarian", "value": "> 100", "unit": "µM"}, {"measurement": "TGI", "setting": "U251 CNS", "value": "> 100", "unit": "µM"}, {"measurement": "TGI", "setting": "A498 renal", "value": "> 100", "unit": "µM"}, {"measurement": "TGI", "setting": "OVCAR-8 ovarian", "value": "> 100", "unit": "µM"}, {"measurement": "TGI", "setting": "K-562 leukemia", "value": "> 100", "unit": "µM"}]}
{"smiles": "CCSc1nc(N2CCCCC2)c2cn[nH]c2n1", "values": [{"measurement": "GI50", "setting": "NCI-H23 lung", "value": 93.2, "unit": "µM"}, {"measurement": "TGI", "setting": "NCI-H23 lung", "value": "> 100", "unit": "µM"}, {"measurement": "GI50", "setting": "ACHN renal", "value": 41.2, "unit": "µM"}, {"measurement": "TGI", "setting": "ACHN renal", "value": "> 100", "unit": "µM"}, {"measurement": "GI50", "setting": "HT29 colon", "value": 66.3, "unit": "µM"}, {"measurement": "TGI", "setting": "HT29 colon", "value": "> 100", "unit": "µM"}, {"measurement": "GI50", "setting": "OVCAR-3 ovarian", "value": 27.9, "unit": "µM"}, {"measurement": "TGI", "setting": "OVCAR-3 ovarian", "value": "> 100", "unit": "µM"}, {"measurement": "GI50", "setting": "U251 CNS", "value": 88.3, "unit": "µM"}, {"measurement": "TGI", "setting": "U251 CNS", "value": "> 100", "unit": "µM"}, {"measurement": "GI50", "setting": "HCC-2998 colon", "value": 42.6, "unit": "µM"}, {"measurement": "TGI", "setting": "HCC-2998 colon", "value": "> 100", "unit": "µM"}, {"measurement": "GI50", "setting": "A498 renal", "value": 10.5, "unit": "µM"}, {"measurement": "TGI", "setting": "A498 renal", "value": 41, "unit": "µM"}, {"measurement": "GI50", "setting": "OVCAR-8 ovarian", "value": 43.6, "unit": "µM"}, {"measurement": "TGI", "setting": "OVCAR-8 ovarian", "value": "> 100", "unit": "µM"}, {"measurement": "GI50", "setting": "K-562 leukemia", "value": 38, "unit": "µM"}, {"measurement": "TGI", "setting": "K-562 leukemia", "value": "> 100", "unit": "µM"}, {"measurement": "GI50", "setting": "UACC-257 melanoma", "value": 58.7, "unit": "µM"}, {"measurement": "TGI", "setting": "UACC-257 melanoma", "value": "> 100", "unit": "µM"}]}
{"smiles": "CCOC(=O)C1(C(=O)OCC)CSC1", "values": [{"measurement": "TGI", "setting": "NCI-H23 lung", "value": "> 100", "unit": "µM"}, {"measurement": "TGI", "setting": "ACHN renal", "value": "> 100", "unit": "µM"}, {"measurement": "TGI", "setting": "HT29 colon", "value": "> 100", "unit": "µM"}, {"measurement": "TGI", "setting": "OVCAR-3 ovarian", "value": "> 100", "unit": "µM"}, {"measurement": "TGI", "setting": "U251 CNS", "value": "> 100", "unit": "µM"}, {"measurement": "TGI", "setting": "HCC-2998 colon", "value": 0.853, "unit": "µM"}, {"measurement": "TGI", "setting": "A498 renal", "value": "> 100", "unit": "µM"}, {"measurement": "TGI", "setting": "OVCAR-8 ovarian", "value": "> 100", "unit": "µM"}, {"measurement": "TGI", "setting": "K-562 leukemia", "value": "> 100", "unit": "µM"}, {"measurement": "TGI", "setting": "UACC-257 melanoma", "value": "> 100", "unit": "µM"}]}
{"smiles": "CC(=O)NC(CCCCNC(=O)OC(C)(C)C)C(=O)O", "note": "(centres undefined)", "values": [{"measurement": "TGI", "setting": "ACHN renal", "value": "> 100", "unit": "µM"}, {"measurement": "TGI", "setting": "HT29 colon", "value": "> 100", "unit": "µM"}, {"measurement": "TGI", "setting": "OVCAR-3 ovarian", "value": "> 100", "unit": "µM"}, {"measurement": "TGI", "setting": "U251 CNS", "value": "> 100", "unit": "µM"}, {"measurement": "TGI", "setting": "HCC-2998 colon", "value": "> 100", "unit": "µM"}, {"measurement": "TGI", "setting": "A498 renal", "value": "> 100", "unit": "µM"}, {"measurement": "TGI", "setting": "OVCAR-8 ovarian", "value": "> 100", "unit": "µM"}, {"measurement": "TGI", "setting": "K-562 leukemia", "value": "> 100", "unit": "µM"}, {"measurement": "TGI", "setting": "UACC-257 melanoma", "value": "> 100", "unit": "µM"}]}
{"smiles": "COC(=O)C1=COC2OC3/C(=C\\c4ccc(O)c(OC)c4)C(=O)OC34C=CC1C24", "note": "(centres undefined)", "values": [{"measurement": "TGI", "setting": "NCI-H23 lung", "value": 32.5, "unit": "µM"}, {"measurement": "TGI", "setting": "ACHN renal", "value": 28.3, "unit": "µM"}, {"measurement": "TGI", "setting": "HT29 colon", "value": 33.5, "unit": "µM"}, {"measurement": "TGI", "setting": "OVCAR-3 ovarian", "value": 28.2, "unit": "µM"}, {"measurement": "TGI", "setting": "U251 CNS", "value": 28.5, "unit": "µM"}, {"measurement": "TGI", "setting": "HCC-2998 colon", "value": 22.9, "unit": "µM"}, {"measurement": "TGI", "setting": "A498 renal", "value": 45.4, "unit": "µM"}, {"measurement": "TGI", "setting": "OVCAR-8 ovarian", "value": 37.7, "unit": "µM"}, {"measurement": "TGI", "setting": "K-562 leukemia", "value": 37.6, "unit": "µM"}, {"measurement": "TGI", "setting": "UACC-257 melanoma", "value": 32.5, "unit": "µM"}]}
{"smiles": "O=C(N1CCC(CN=c2cc3n(-c4ccc(Cl)cc4)c4ccccc4nc-3cc2Nc2ccc(Cl)cc2)CC1)N1CC1", "values": [{"measurement": "GI50", "setting": "NCI-H23 lung", "value": 1.65, "unit": "µM"}, {"measurement": "TGI", "setting": "NCI-H23 lung", "value": 3.23, "unit": "µM"}, {"measurement": "GI50", "setting": "ACHN renal", "value": 1.63, "unit": "µM"}, {"measurement": "TGI", "setting": "ACHN renal", "value": 3.21, "unit": "µM"}, {"measurement": "GI50", "setting": "HT29 colon", "value": 0.204, "unit": "µM"}, {"measurement": "TGI", "setting": "HT29 colon", "value": 0.547, "unit": "µM"}, {"measurement": "GI50", "setting": "OVCAR-3 ovarian", "value": 1.1, "unit": "µM"}, {"measurement": "TGI", "setting": "OVCAR-3 ovarian", "value": 2.69, "unit": "µM"}, {"measurement": "GI50", "setting": "U251 CNS", "value": 1.23, "unit": "µM"}, {"measurement": "TGI", "setting": "U251 CNS", "value": 2.48, "unit": "µM"}, {"measurement": "GI50", "setting": "HCC-2998 colon", "value": 0.632, "unit": "µM"}, {"measurement": "TGI", "setting": "HCC-2998 colon", "value": 1.58, "unit": "µM"}, {"measurement": "GI50", "setting": "A498 renal", "value": 1.75, "unit": "µM"}, {"measurement": "TGI", "setting": "A498 renal", "value": 3.61, "unit": "µM"}, {"measurement": "GI50", "setting": "K-562 leukemia", "value": 0.286, "unit": "µM"}, {"measurement": "GI50", "setting": "UACC-257 melanoma", "value": 0.605, "unit": "µM"}, {"measurement": "TGI", "setting": "UACC-257 melanoma", "value": 1.89, "unit": "µM"}]}
{"smiles": "CCOc1ccc(N=Nc2ccc3oc(=O)c(/C(C)=N\\NC(=O)CC(=O)Nc4ccc(Cl)cc4)cc3c2)cc1", "values": [{"measurement": "TGI", "setting": "NCI-H23 lung", "value": 41.9, "unit": "µM"}, {"measurement": "TGI", "setting": "ACHN renal", "value": 97.6, "unit": "µM"}, {"measurement": "TGI", "setting": "OVCAR-3 ovarian", "value": 30.4, "unit": "µM"}, {"measurement": "TGI", "setting": "U251 CNS", "value": 34, "unit": "µM"}, {"measurement": "TGI", "setting": "HCC-2998 colon", "value": 35.2, "unit": "µM"}, {"measurement": "TGI", "setting": "OVCAR-8 ovarian", "value": 34.4, "unit": "µM"}, {"measurement": "TGI", "setting": "K-562 leukemia", "value": 70.6, "unit": "µM"}]}
